According to PubChem BioAssay AID1963826 (Molecular Pharmacology Branch, DTP, NCI, 2024):

Test system: 926638-142-R-J1-PDC complex spheroid viability
Experiment: Anticancer human tumor 926638-142-R-J1-PDC patient-derived endometrial carcinoma cell line growth inhibition [POLQ]
Conditions: for IC50: curve of first compound; for viability, T/C: stronger effect = lower value
Procedure, shortened: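 PDC + HUVEC + MSC complex spheroids; POLQ inhibitors ± partner drugs; top conc. at/near clinical Cmax, else 10 microM (SN-38 1 microM), half-log dilutions; 37 degrees C, 5% CO2.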

[1] = second compound 0.0316 µM, first compound 0.000316 µM
[2] = second compound 0.0316 µM, first compound 0.001 µM
[3] = second compound 0.0316 µM, first compound 0.00316 µM
[4] = second compound 0.0316 µM, first compound 0.01 µM
[5] = second compound 0.0316 µM, first compound 0.0316 µM
[6] = second compound 0.0316 µM, first compound 0.1 µM
[7] = second compound 0.1 µM, first compound 0.000316 µM
[8] = second compound 0.1 µM, first compound 0.001 µM
[9] = second compound 0.1 µM, first compound 0.00316 µM
[10] = second compound 0.1 µM, first compound 0.01 µM
[11] = second compound 0.1 µM, first compound 0.0316 µM
[12] = second compound 0.1 µM, first compound 0.1 µM
[13] = second compound 0.316 µM, first compound 0.000316 µM
[14] = second compound 0.316 µM, first compound 0.001 µM
[15] = second compound 0.316 µM, first compound 0.00316 µM
[16] = second compound 0.316 µM, first compound 0.01 µM
[17] = second compound 0.316 µM, first compound 0.0316 µM
[18] = second compound 0.316 µM, first compound 0.1 µM
[19] = second compound 1 µM, first compound 0.000316 µM
[20] = second compound 1 µM, first compound 0.001 µM
[21] = second compound 1 µM, first compound 0.00316 µM
[22] = second compound 1 µM, first compound 0.01 µM
[23] = second compound 1 µM, first compound 0.0316 µM
[24] = second compound 1 µM, first compound 0.1 µM
[25] = second compound 3.16 µM, first compound 0.000316 µM
[26] = second compound 3.16 µM, first compound 0.001 µM
[27] = second compound 3.16 µM, first compound 0.00316 µM
[28] = second compound 3.16 µM, first compound 0.01 µM
[29] = second compound 3.16 µM, first compound 0.0316 µM
[30] = second compound 3.16 µM, first compound 0.1 µM
[31] = second compound 10 µM, first compound 0.000316 µM
[32] = second compound 10 µM, first compound 0.001 µM
[33] = second compound 10 µM, first compound 0.00316 µM
[34] = second compound 10 µM, first compound 0.01 µM
[35] = second compound 10 µM, first compound 0.0316 µM
[36] = second compound 10 µM, first compound 0.1 µM
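Note: spheroids exposed to drugs for one week before readout.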
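Throughout, for viability, T/C: percent viability relative to DMSO vehicle control wells set as 100%.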

For `CC[C@@]1(O)C(=O)OCc2c1cc1n(c2=O)Cc2cc3c(CN(C)C)c(O)ccc3nc2-1` + Cc1cccc(N(C)C(=O)C2C(O)CCN2c2nc(C)cc(C(F)(F)F)c2C#N)c1, the IC50 (second compound 0.0316 µM) was 68.9 nM, the IC50 (second compound 0.1 µM) was 74.9 nM and the IC50 (second compound 0.316 µM) was 73.8 nM. For the same compound, the IC50 (second compound 1 µM) was > 100 nM, the IC50 (second compound 3.16 µM) was > 100 nM and the IC50 (second compound 10 µM) was > 100 nM. The viability, T/C [1] was 100%, the viability, T/C [2] was 91.2% and the viability, T/C [3] was 74.6%. For the same compound, the viability, T/C [4] was 70.4%, the viability, T/C [5] was 63.1% and the viability, T/C [6] was 43.4%. The viability, T/C [7] was 86.4%, the viability, T/C [8] was 94.6% and the viability, T/C [9] was 87.9%. For the same compound, the viability, T/C [10] was 76.8%, the viability, T/C [11] was 64.7% and the viability, T/C [12] was 45.2%. For the same compound, the viability, T/C [13] was 94.3%, the viability, T/C [14] was 88.9% and the viability, T/C [15] was 70.4%. The viability, T/C [16] was 76.3%, the viability, T/C [17] was 57.4% and the viability, T/C [18] was 46.3%. For the same compound, the viability, T/C [19] was 93.7%, the viability, T/C [20] was 74% and the viability, T/C [21] was 88.8%. It also gave a viability, T/C [22] of 68.3%, a viability, T/C [23] of 68% and a viability, T/C [24] of 50.4%. It also gave a viability, T/C [25] of 78.3%, a viability, T/C [26] of 99% and a viability, T/C [27] of 80.7%. The viability, T/C [28] was 63%, the viability, T/C [29] was 61.2% and the viability, T/C [30] was 47%. For the same compound, the viability, T/C [31] was 97.9%, the viability, T/C [32] was 71.1% and the viability, T/C [33] was 75.7%. The viability, T/C [34] was 68%, the viability, T/C [35] was 62.2% and the viability, T/C [36] was 47.5%.

In the case of `C=CCn1c(=O)c2cnc(Nc3ccc(N4CCN(C)CC4)cc3)nc2n1-c1cccc(C(C)(C)O)n1` + COC1C(OC(N)=O)C(O)C(Oc2ccc3c(O)c(NC(=O)c4ccc(O)c(CC=C(C)C)c4)c(=O)oc3c2C)OC1(C)C, the IC50 (second compound 0.0316 µM) is reported as 494 nM, the IC50 (second compound 0.1 µM) is reported as 445 nM and the IC50 (second compound 0.316 µM) is reported as 414 nM. For the same compound, the IC50 (second compound 1 µM) was 339 nM, the IC50 (second compound 3.16 µM) was 277 nM and the IC50 (second compound 10 µM) was 470 nM. The viability, T/C [3] was 106%, the viability, T/C [4] was 95.1% and the viability, T/C [5] was 93%. It also gave a viability, T/C [6] of 85.3%, a viability, T/C (second compound 0.0316 µM, first compound 0.316 µM) of 54.1% and a viability, T/C (second compound 0.0316 µM, first compound 1 µM) of 41.6%. For the same compound, the viability, T/C [9] was 102%, the viability, T/C [10] was 105% and the viability, T/C [11] was 90.7%. It also gave a viability, T/C [12] of 80%, a viability, T/C (second compound 0.1 µM, first compound 0.316 µM) of 57.7% and a viability, T/C (second compound 0.1 µM, first compound 1 µM) of 32.2%. The viability, T/C [15] was 88%, the viability, T/C [16] was 86.1% and the viability, T/C [17] was 78.3%. For the same compound, the viability, T/C [18] was 87.4%, the viability, T/C (second compound 0.316 µM, first compound 0.316 µM) was 52.8% and the viability, T/C (second compound 0.316 µM, first compound 1 µM) was 40.7%. It also gave a viability, T/C [21] of 84.4%, a viability, T/C [22] of 98.5% and a viability, T/C [23] of 93.3%. The viability, T/C [24] was 85.2%, the viability, T/C (second compound 1 µM, first compound 0.316 µM) was 50.9% and the viability, T/C (second compound 1 µM, first compound 1 µM) was 37.1%. For the same compound, the viability, T/C [27] was 93.6%, the viability, T/C [28] was 104% and the viability, T/C [29] was 89.1%. It also gave a viability, T/C [30] of 70.9%, a viability, T/C (second compound 3.16 µM, first compound 0.316 µM) of 47.7% and a viability, T/C (second compound 3.16 µM, first compound 1 µM) of 37.7%. For the same compound, the viability, T/C [33] was 98%, the viability, T/C [34] was 109% and the viability, T/C [35] was 91.3%. For the same compound, the viability, T/C [36] was 80.5%, the viability, T/C (second compound 10 µM, first compound 0.316 µM) was 56.6% and the viability, T/C (second compound 10 µM, first compound 1 µM) was 37.6%.

`Cn1ncnc1[C@H]1c2n[nH]c(=O)c3cc(F)cc(c23)N[C@@H]1c1ccc(F)cc1` + Nc1ccc(C#CCN(C(=O)Cc2ncc(C(F)(F)F)cc2C(F)(F)F)c2ccc(F)cc2)nn1 was tested, and the IC50 (second compound 0.0316 µM) was > 100 nM, the IC50 (second compound 0.1 µM) was > 100 nM and the IC50 (second compound 0.316 µM) was > 100 nM. For the same compound, the IC50 (second compound 1 µM) was > 100 nM, the IC50 (second compound 3.16 µM) was > 100 nM and the IC50 (second compound 10 µM) was > 100 nM. It also gave a viability, T/C [1] of 117%, a viability, T/C [2] of 89.7% and a viability, T/C [3] of 99.6%. For the same compound, the viability, T/C [4] was 75.7%, the viability, T/C [5] was 69.8% and the viability, T/C [6] was 74.5%. It also gave a viability, T/C [7] of 123%, a viability, T/C [8] of 90.1% and a viability, T/C [9] of 101%. The viability, T/C [10] was 78%, the viability, T/C [11] was 79.8% and the viability, T/C [12] was 68.5%. It also gave a viability, T/C [13] of 91.9%, a viability, T/C [14] of 98.5% and a viability, T/C [15] of 83.6%. The viability, T/C [16] was 84%, the viability, T/C [17] was 84.9% and the viability, T/C [18] was 66.2%. It also gave a viability, T/C [19] of 108%, a viability, T/C [20] of 96.7% and a viability, T/C [21] of 75.6%. For the same compound, the viability, T/C [22] was 83.2%, the viability, T/C [23] was 70.4% and the viability, T/C [24] was 80.5%. For the same compound, the viability, T/C [25] was 82.3%, the viability, T/C [26] was 96.3% and the viability, T/C [27] was 92.2%. It also gave a viability, T/C [28] of 92.4%, a viability, T/C [29] of 82.9% and a viability, T/C [30] of 71.2%. The viability, T/C [31] was 94.3%, the viability, T/C [32] was 99.2% and the viability, T/C [33] was 78.7%. For the same compound, the viability, T/C [34] was 74%, the viability, T/C [35] was 81.9% and the viability, T/C [36] was 75.7%.
